# Structures can show the parent of a compound that is named as a salt. Where two headings read alike, the source gives them in different places.
# Tests used:
# [1] = test system: 1321N1 astrocyte cell line; assay: 1321N1 oxidative stress assay (serum withdrawal, DCF); conditions: for Emax: 1321-N1, 24 h, read-out: 1321N1 oxidative stress assay Max reduction; for 1321N1 oxidative stress assay Toxic dose: minimum dose at which toxicity was observed; for 1321N1 oxidative stress assay Max reduction: maximum % inhibition of DCF signal
# Protocol: (§1) Media were then replaced with serum-free, phenol-free media for 5 h.
# [2] = test system: C6 astrocyte cell line; assay: C6 oxidative stress assay (serum withdrawal, DCF); conditions: for Emax: 24 h, read-out: C6 oxidative stress assay Max reduction; for IC50: read-out: C6 oxidative stress assay IC50; for C6 oxidative stress assay Toxic dose: minimum dose at which toxicity was observed; for C6 oxidative stress assay Max reduction: maximum % inhibition of DCF signal
# Protocol: as §1
# [3] = test system: NSC34 cells; assay: NSC34 oxidative stress assay (serum withdrawal, DCF); conditions: for Emax: Mus musculus, NSC-34, 24 h, read-out: NSC34 oxidative stress assay Max reduction; for NSC34 oxidative stress assay Toxic dose: minimum dose at which toxicity was observed; for NSC34 oxidative stress assay Max reduction: maximum % inhibition of DCF signal, negative = prooxidant
# Protocol: as §1
# [4] = test system: Nrf2-ARE pathway; assay: ARE reporter assay in CHO 4xARE-TK-GFP cells (Spectrum library hits); conditions: for Fold GFP induction: average fold over baseline at the maximal response, CHO cells; for Toxic dose: lowest dose at which a reduction in GFP fluorescence was observed
# Protocol: The Z′ score was calculated as follows Z′=1−(3SD^++3SD^−)/(Ave^+–Ave^−) where SD^+ = standard deviation of positive control wells; SD^− = standard deviation of negative control wells; Ave^+ = average fluorescence reading of positive control wells; Ave^− = average fluorescence reading of negative control wells.
# Media was removed by hand and replaced (1 compound/well) with the Spectrum library diluted to 10 μM in 0.1% DMSO using a Q-bot liquid handling system (Genetix, New Milton, UK). […] The TK-GFP CHO ARE cell line was screened twice in a single point assay and the control TK-GFP CHO cell line was screened once to eliminate false positives.
# The compounds were applied in triplicate to confluent cells in 96 well plates in serum free medium for 24 hours and the induction of GFP measured in a fluorescence plate reader.
# In order to screen the Spectrum collection of 2000 molecules the reporter assay was optimised in […]. To assess the suitability of the assay for library screening, a Z’ score calculation was performed by treating alternate wells with vehicle (0.1% DMSO) and 10 µM Ebselen as a positive control (see calculation in Methods). […] The library was subsequently screened at a single point concentration of 10µM for every compound. Drug library dilutions and plating were performed with a Q-BOT liquid handling system and both the 4xARE-TK-GFP reporter cell line and TK-GFP control cell line were tested for their response to the compounds. Hits were identified as having data points more than three standard deviations above the background level, which was the average value of 24 wells treated with vehicle (0.1% DMSO) only. Hit compounds were checked to see if they generated a response in the control cell line, for example by non-specific activation of transcription or autofluorescence. […] The library screen was repeated once in the 4xARE –TK-CHO cell line and compounds classed as hits in both screens were taken forward for further assessment.
# [5] = Homo sapiens, 1321-N1, read-out: 1321N1 oxidative stress assay IC50
# [6] = read-out: 1321N1 oxidative stress assay IC50, 24-h preconditioning, 6-h serum withdrawal, DCF fluorescence
# [7] = 24-h preconditioning, 6-h serum withdrawal, DCF fluorescence
# [8] = CHO ARE reporter, 7-point concentration response
Compound,Emax ([1]; Homo sapiens) [%],"IC50 [1, 5] [µM]",1321N1 oxidative stress assay Toxic dose [1],"Emax ([2]; Rattus norvegicus, Astrocyte) [%]","IC50 ([2]; Rattus norvegicus, Astrocyte) [µM]",C6 oxidative stress assay Toxic dose [2],Emax [3] [%],NSC34 oxidative stress assay Toxic dose [3],EC50 ([4]; Cricetulus griseus) [µM],Fold GFP induction ([4]; 24 h) [fold],Toxic dose [4],1321N1 oxidative stress assay Max reduction [1] [%],"IC50 [1, 6] [µM]",C6 oxidative stress assay Max reduction [2] [%],"IC50 [2, 7] [µM]",NSC34 oxidative stress assay Max reduction [3] [%],"EC50 [4, 8] [µM]","EC90 ([4]; Cricetulus griseus, read-out: approximate EC90) [µM]","maximal fold induction ([4]; Cricetulus griseus, CHO, 24 h, read-out: Fold GFP induction)"
CC1=C2C(=CO[C@H](C)[C@H]2C)C(O)=C(C(=O)O)C1=O [Citrinin],28,0.338,none,23,20,none,0,none,4.1,3.26,30 µM,,,,,,,,
C=CC(C1=CC(=O)C=CC1=O)c1ccccc1 (stereo not shown) [Dalbergione],38,64,None,40,46,None,0,None,2.47,,30 µM,,,,,,,,
CC1(C)C(=O)C=C[C@]2(C)[C@H]3CC[C@@]4(C)[C@H](c5ccoc5)OC(=O)[C@H]5O[C@]54[C@]3(C)[C@H](O)C[C@@H]12 [Deacetylgedunin],28,2.37,10 µM,70,5.36,None,0,None,3.5,3.05,30 µM,,,,,,,,
CC1(C)C2CC(=O)O[C@@]3(C)C4=CC(=O)O[C@@H](c5ccoc5)[C@]4(C)CCC3[C@@]2(C)C=C[C@H]1O (stereo partly shown) [Deoxyandirobin lactone],65,1.64,None,38,2.87,None,0,None,11.1,,100 µM,,,,,,,,
CC(=O)O[C@@H]1C[C@H]2C(C)(C)C(=O)C=C[C@]2(C)[C@H]2CC[C@]3(C)C(=CC(=O)O[C@H]3c3ccoc3)[C@@]21C [Deoxygedunin],,,10 µM,,,none,,10 µM,,1.82,30 µM,25,1.41,61,2.19,7,1.15,,
"O=c1c2ccccc2[se]n1-c1ccccc1 [Ebselen, reference compound]",20,0.193,none,30,,none,-80,none,4,,100 µM,,,,,,,~10,
O=C(CC[N+](=O)[O-])OC[C@H]1O[C@@H](O)[C@H](OC(=O)CC[N+](=O)[O-])[C@@H](OC(=O)CC[N+](=O)[O-])[C@@H]1OC(=O)CC[N+](=O)[O-] [Endecaphyllin X],,,none,,,none,,10 µM,,2.15,None,56,,40,3.15,0,18.8,,
"C=C(CC)C(=O)c1ccc(OCC(=O)O)c(Cl)c1Cl [Ethacrynic acid, reference compound]",25,3.01,,31,3.01,,-30,10 µM,14,,100 µM,,,,,,,,
CC(=O)O[C@H]1CCC2(C)C3=C(CCC2C1(C)C)[C@@]1(C)CC[C@@H](C(C)CCC=C(C)C)[C@]1(C)CC3 (stereo partly shown) [Euphol acetate],,,none,,,none,,none,,2.20,100 µM,38,18,0,,-43,,,
O=C(/C=C/c1ccc(O)cc1)c1ccc(O)cc1O [Isoliquiritigenin],50,1.78,none,46,28,none,-6,1 µM,2.52,,30 µM,,,,,,,,
"CC(COc1ccccc1)NC(C)C(O)c1ccc(O)cc1 (stereo not shown) [Isoxsuprine hydrochloride, reference compound]",,,none,40,23,none,-16,none,,,100 µM,,,,,,,,
OC[C@H]1O[C@@H](n2cnc3c(NCc4ccco4)ncnc32)[C@H](O)[C@@H]1O [Kinetin riboside],25,0.246,3 µM,40,3.84,10 µM,0,3 µM,,,30 µM,,,,,,,,
CCCCCc1c2c(cc(O)c1C(=O)O)OC(=O)c1c(cc(OC)cc1C(=O)CCCC)O2 [Lobaric acid],0,,none,9,3.14,none,-26,none,17,,100 µM,,,,,,,,
C=C1C(=O)O[C@H]2[C@H]1CC/C(C)=C/CC[C@@]1(C)O[C@@H]21 [Parthenolide],47,28.4,None,81,3.11,None,0,1 µM,> 100,,100 µM,,,,,,,,2.77

# — publication PMC3684770 (Free Radical Biology & Medicine, 2013)
